Test results from US12103915B2, “TEAD inhibitors and methods of uses thereof” (Insilico Medicine IP Limited, priority 2022, dated 2024).

What was measured:
NCI-H226 cells = test: Cell growth assay (CellTiter-Glo); format: cell-based, human; settings: Homo sapiens, NCI-H226, 168 h, 7 days treatment, CellTiter-Glo luminescence, read-out: H226 CTG IC50
TEAD1 = TEAD1 (Homo sapiens, UniProt P28347); test: Thermal shift assay TEAD1; format: binding
In short: (§1)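 Protein melt reactions contained TEAD1 (0.2 mg/ml final) or TEAD2 (0.08 mg/ml final) plus compound at 1 or 10 μM in 0.1% DMSO. Thermal unfolding was followed by dye fluorescence on a qPCR instrument.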

TEAD2 = TEAD2 (Homo sapiens, UniProt Q15562); test: Thermal shift assay TEAD2; format: binding
In short: as §1

TEAD3 = TEAD3 (Homo sapiens, UniProt Q99594); test: Thermal shift assay TEAD3; format: binding
In short: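 Compounds at 1 or 10 μM (0.1% DMSO, PBS dilution) mixed with 0.1 mg/ml final TEAD3 and thermal shift dye, then run through a qPCR melt to follow protein unfolding.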

TEAD4 = TEAD4 (Homo sapiens, UniProt Q15561); test: Thermal shift assay TEAD4; format: binding
In short: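 Compounds tested at 1 and 10 μM (0.1% DMSO, PBS) against TEAD4 protein at 0.1 mg/ml final. Melting followed by thermal shift dye fluorescence during a qPCR instrument ramp.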

TEAD4, sequence (Q15561 whole entry, species assumed): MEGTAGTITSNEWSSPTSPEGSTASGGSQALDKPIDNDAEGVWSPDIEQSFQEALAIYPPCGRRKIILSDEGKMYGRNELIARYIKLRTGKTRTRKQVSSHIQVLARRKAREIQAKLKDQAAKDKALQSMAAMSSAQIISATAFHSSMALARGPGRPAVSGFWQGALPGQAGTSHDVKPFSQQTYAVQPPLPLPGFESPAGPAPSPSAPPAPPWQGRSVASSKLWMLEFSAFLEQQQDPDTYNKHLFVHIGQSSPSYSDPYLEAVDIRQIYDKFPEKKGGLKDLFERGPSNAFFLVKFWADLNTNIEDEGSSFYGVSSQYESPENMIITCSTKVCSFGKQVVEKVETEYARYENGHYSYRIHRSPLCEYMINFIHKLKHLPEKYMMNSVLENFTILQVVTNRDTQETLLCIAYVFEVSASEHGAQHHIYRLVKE
TEAD3, sequence (Q99594 whole entry, species assumed): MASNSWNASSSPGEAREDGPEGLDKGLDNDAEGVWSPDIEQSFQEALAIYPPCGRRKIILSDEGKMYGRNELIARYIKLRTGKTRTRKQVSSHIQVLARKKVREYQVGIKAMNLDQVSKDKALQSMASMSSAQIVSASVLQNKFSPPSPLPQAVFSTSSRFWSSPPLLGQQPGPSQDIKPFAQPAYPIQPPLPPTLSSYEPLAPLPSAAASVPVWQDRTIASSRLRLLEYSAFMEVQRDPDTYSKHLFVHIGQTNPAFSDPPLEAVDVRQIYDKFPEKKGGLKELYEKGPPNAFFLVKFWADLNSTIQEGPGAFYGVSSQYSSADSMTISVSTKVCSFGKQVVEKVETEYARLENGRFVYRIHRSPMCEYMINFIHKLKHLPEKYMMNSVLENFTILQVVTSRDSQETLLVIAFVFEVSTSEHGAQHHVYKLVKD
TEAD1, sequence (P28347 whole entry, species assumed): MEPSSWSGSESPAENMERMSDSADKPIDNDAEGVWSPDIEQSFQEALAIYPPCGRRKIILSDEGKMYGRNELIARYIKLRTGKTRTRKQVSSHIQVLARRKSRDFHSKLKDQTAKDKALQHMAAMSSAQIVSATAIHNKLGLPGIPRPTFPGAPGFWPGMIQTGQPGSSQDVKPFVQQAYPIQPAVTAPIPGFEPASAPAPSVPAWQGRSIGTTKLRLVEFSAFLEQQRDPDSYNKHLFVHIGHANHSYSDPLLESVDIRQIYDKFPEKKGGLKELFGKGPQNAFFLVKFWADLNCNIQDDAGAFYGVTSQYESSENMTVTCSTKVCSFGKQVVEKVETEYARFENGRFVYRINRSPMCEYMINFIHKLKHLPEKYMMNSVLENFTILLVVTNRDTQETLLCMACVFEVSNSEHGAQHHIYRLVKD
TEAD2, sequence (Q15562 whole entry, species assumed): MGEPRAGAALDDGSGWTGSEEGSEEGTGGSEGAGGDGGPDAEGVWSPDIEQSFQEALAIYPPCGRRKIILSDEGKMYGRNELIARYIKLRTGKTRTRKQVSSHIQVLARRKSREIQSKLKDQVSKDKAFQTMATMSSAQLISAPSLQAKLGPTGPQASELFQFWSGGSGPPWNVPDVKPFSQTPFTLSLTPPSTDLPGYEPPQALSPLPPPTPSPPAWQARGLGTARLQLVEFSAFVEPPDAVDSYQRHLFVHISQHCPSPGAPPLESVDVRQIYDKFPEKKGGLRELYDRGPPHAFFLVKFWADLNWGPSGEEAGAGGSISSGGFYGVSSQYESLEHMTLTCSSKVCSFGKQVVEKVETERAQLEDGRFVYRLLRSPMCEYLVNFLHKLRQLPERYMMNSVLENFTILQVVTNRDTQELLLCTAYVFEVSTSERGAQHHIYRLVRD

| SMILES | IC50 (NCI-H226 cells) | TEAD1 ΔTm (TEAD1) | TEAD2 ΔTm (TEAD2) | TEAD3 ΔTm (TEAD3) | TEAD4 ΔTm (TEAD4) |
| --- | --- | --- | --- | --- | --- |
| Cn1cc2cc(Oc3ccc(C(F)(F)F)cn3)cc([C@H]3C[C@@H]3C(=O)N3CC(O)C3)c2n1 (single isomer, unassigned) [Example 88b] | < 0.1 µM | 7.6 °C | 10.9 °C | 2.6 °C | 9.7 °C |
| Cn1cc2cc(Oc3ccc(C(F)F)cc3)cc([C@H]3C[C@@H]3C(=O)N3CC(O)C3)c2n1 (single isomer, unassigned) [Example 89b] | < 0.1 µM | 8.6 °C | 12.4 °C | 8.8 °C | 11.4 °C |
| Cn1cc2cc(Oc3ccc(F)c(F)c3)cc([C@H]3C[C@@H]3C(=O)N3CC(O)C3)c2n1 (single isomer, unassigned) [Example 90b] | < 0.1 µM | 7.7 °C | 10.5 °C | 2.9 °C | 10.3 °C |
| Cn1cc2cc(Oc3ccc(C(F)(F)F)cc3)cc(C3C[C@H]3C(=O)NC3CC4(CC(O)C4)C3)c2n1 (single isomer, unassigned) [Example 95] | < 0.1 µM | 9.4 °C | 10.6 °C | 6.4 °C | 9.4 °C |
| Cn1cc2cc(Oc3ccc(C(F)(F)F)cc3)cc(C3C[C@H]3C(=O)N3C4COCC3C4)c2n1 (single isomer, unassigned) [Example 96] | < 0.1 µM | 10.5 °C | 13.1 °C | 12.3 °C | 12.6 °C |
| Cn1cc2cc(Oc3ccc(C(F)(F)F)cc3)cc(C3C[C@H]3C(=O)N3CC4(CC(O)C4)C3)c2n1 (single isomer, unassigned) [Example 97] | < 0.1 µM | 9.9 °C | 9.0 °C | 7.6 °C | 10.2 °C |
| Cn1cc2cc(Oc3ccc(C(F)(F)F)cc3)cc(C3C[C@H]3C(=O)N3CCC4(COC4)C3)c2n1 (single isomer, unassigned) [Example 98] | 0.1 to 0.5 µM | 7.3 °C | 9.2 °C | 0 °C | 8.4 °C |
| Cn1cc2cc(Oc3ccc(C(F)(F)F)cc3)cc(C3C[C@H]3C(=O)NC34CC(O)(C3)C4)c2n1 (single isomer, unassigned) [Example 102] | < 0.1 µM | 7.3 °C | 9.1 °C | 2.1 °C | 8.7 °C |
| Cn1cc2cc(Oc3ccc(C(F)(F)F)cc3)cc([C@@H]3C[C@H]3C(=O)N3CC4CC3CC4O)c2n1 (single isomer, unassigned) [Example 103a] | < 0.1 µM | 6.4 °C | 9.9 °C | 3.0 °C | 9.0 °C |
| Cn1cc2cc(Oc3ccc(C(F)(F)F)cc3)cc([C@H]3C[C@@H]3C(=O)N3CC4CC3CC4O)c2n1 (single isomer, unassigned) [Example 103b] | < 0.1 µM | 9.2 °C | 12.0 °C | 10.4 °C | 11.8 °C |
| Cn1cc2cc(Oc3ccc(C(F)(F)F)cc3)cc(C3C[C@H]3C(=O)N3C[C@H]4C[C@@H]3C[C@@H]4O)c2n1 (single isomer, unassigned) [Example 103c] | < 0.1 µM | 9.2 °C | 11.1 °C | 9.4 °C | 10.7 °C |
| Cn1cc2cc(Oc3ccc(C(F)(F)F)cc3)cc(C3C[C@H]3C(=O)N3C[C@@H]4C[C@H]3C[C@H]4O)c2n1 (single isomer, unassigned) [Example 103d] | < 0.1 µM | 9.5 °C | 11.6 °C | 10.3 °C | 11.2 °C |
| Cn1cc2cc(Oc3ccc(C(F)(F)F)cc3)cc(C3C[C@H]3C(=O)N3C[C@H]4C[C@@H]3C[C@H]4O)c2n1 (single isomer, unassigned) [Example 103e] | < 0.1 µM | 6.9 °C | 9.1 °C | 1.8 °C | 8.7 °C |
| Cn1cc2cc(Oc3ccc(C(F)(F)F)cc3)cc(C3C[C@H]3C(=O)N3[C@@H]4CC[C@H]3C[C@@H](O)C4)c2n1 (single isomer, unassigned) [Example 104] | < 0.1 µM | 6.5 °C | 9.0 °C | 2.0 °C | 8.1 °C |
| Cn1cc2cc(Oc3ccc(C(F)(F)F)cc3)cc(C3C[C@H]3C(=O)N3[C@@H]4CC[C@H]3C[C@H](O)C4)c2n1 (single isomer, unassigned) [Example 105] | < 0.1 µM | 6.8 °C | 8.2 °C | 2.2 °C | 8.1 °C |
| Cn1cc2nc(Oc3ccc(C(F)(F)F)cc3)cc([C@H]3C[C@@H]3C(=O)N3CC(O)C3)c2n1 (single isomer, unassigned) [Example 108b] | < 0.1 µM | 7.9 °C | 9.1 °C | 8.8 °C | 8.3 °C |
| CO[C@@H]1CN(C(=O)[C@@H]2C[C@H]2c2cc(Oc3ccc(C(F)(F)F)cc3)cc3cn(C)nc23)C[C@H]1O (single isomer, unassigned) [Example 112b] | < 0.1 µM | 8.4 °C | 10.2 °C | 1.9 °C | 10.1 °C |
| Cn1cc2cc(Oc3ccc(C(F)(F)F)cc3)cc([C@@H]3C[C@H]3C(=O)N3CC4CC3C(=O)N4)c2n1 (single isomer, unassigned) [Example 121] | < 0.1 µM | 7.9 °C | 10.6 °C | 2.0 °C | 8.9 °C |
| Cn1cc2cc(Oc3ccc(C(F)(F)F)cc3)cc([C@@H]3C[C@H]3C(=O)N3CC4CC(C3)N4)c2n1 (single isomer, unassigned) [Example 123] | < 0.1 µM | 7.7 °C | 9.1 °C | 1.8 °C | 9.2 °C |
| CN(C#N)C(=O)[C@@H]1C[C@H]1c1cc(Oc2ccc(C(F)(F)F)cc2)cc2cn(C)nc12 (single isomer, unassigned) [Example 124] | 1 to 30 µM | 6.0 °C | 9.8 °C | 1.0 °C | 7.7 °C |
| Cn1cc2cc(Oc3ccc(C(F)(F)F)cc3)cc([C@@H]3C[C@H]3C(=O)NCCO)c2n1 (single isomer, unassigned) [Example 125] | < 0.1 µM | 9.1 °C | 11.9 °C | 9.3 °C | 9.6 °C |
| Cn1cc2cc(Oc3ccc(C(F)(F)F)c(F)c3)cc([C@@H]3C[C@H]3C(=O)N3CC(O)C3)c2n1 (single isomer, unassigned) [Example 132] | < 0.1 µM | 10.9 °C | 15.8 °C | 13.9 °C | 13.7 °C |
| Cn1cc2cc(Oc3ccc(C(F)(F)F)cc3)cc([C@@H]3C[C@H]3C(=O)N=S(C)(C)=O)c2n1 (single isomer, unassigned) [Example 134] | < 0.1 µM | 6.8 °C | 6.0 °C | 1.5 °C | 5.8 °C |
| Cn1cc2cc(Oc3ccc(C(F)(F)F)cc3)cc([C@@H]3C[C@H]3C(=O)N3CCC34CC(=O)C4)c2n1 (single isomer, unassigned) [Example 135] | 0.1 to 0.5 µM | 25.0 °C | 25.0 °C | 18.0 °C | 6.9 °C |
| Cn1cc2cc(Oc3ccc(Cl)cc3)cc([C@@H]3C[C@H]3C(=O)N3C[C@@H]4C[C@H]3C[C@@H]4O)c2n1 (single isomer, unassigned) [Example 139] | < 0.1 µM | 5.5 °C | 9.2 °C | 2.8 °C | 7.6 °C |
| Cn1cc2cc(Oc3ccc(C(F)(F)F)c(F)c3)cc([C@@H]3C[C@H]3C(=O)N3C[C@@H]4C[C@H]3C[C@@H]4O)c2n1 (single isomer, unassigned) [Example 140] | < 0.1 µM | 7.6 °C | 11.1 °C | 8.9 °C | 10.6 °C |
| CN(C)C(=O)[C@@H]1C[C@H]1c1cc(Oc2ccc(C(F)(F)F)c(F)c2)cc2cn(C)nc12 (single isomer, unassigned) [Example 141] | < 0.1 µM | 9.3 °C | 16.2 °C | 11.4 °C | 12.0 °C |
| CNC(=O)[C@@H]1CC1c1cc(-c2ccc(C(F)(F)F)cc2)cc2c1cnn2C (stereo partly shown) [Example 40] | 0.1 to 0.5 µM | 1.9 °C | 2.7 °C | 0.2 °C | 0.7 °C |
| CNS(=O)(=O)/C=C/c1cc(-c2ccc(C(F)(F)F)cc2)cc2c1cnn2C [Example 41] | < 0.1 µM | 2.1 °C | 1.2 °C | 0.7 °C | 1.4 °C |
